Data taken from patent US5300279A, “Organic amine phosphonic acid complexes for the treatment of calcific tumors” (The Dow Chemical Company, priority 1990, dated 1994).

Experiments:
[1] = localization of radioactivity (composition judged unacceptable); assay type: in vivo; conditions: Sm-153; species not stated
[2] = biolocalization of the radionuclide in rats (tissue distribution after tail vein injection); assay type: in vivo, male Sprague Dawley rats; conditions: for Bone/Blood / Bone/Muscle: ratio of percent dose per gram
Description: Studies to determine the qualitative biodistribution of the various radionuclides were conducted by injecting the compositions into rats and obtaining the gamma ray images of the entire animal at various times up to two hours after injection.
Laboratory rats were injected with the above complex (50-100 μl) via the tail vein. After 2 hours, the animals were sacrificed by cervical dislocation and organs and tissues removed. Samples were counted with a NaI counter to determine the biolocalization of the radionuclide.

tumor = conditions: female Irish Wolfhound, possible osteosarcoma; 0.97 mCi/kg
Description: An English Setter with a tumor in his pelvis was injected with approximately 19 mCi of a composition containing Sm-153-EDTMP. After 2 hours, the dog was imaged using a scintillation camera.
An Irish setter with undifferentiated sarcoma metastatic to bone was treated with 16 mCi (0.57 mCi/kg) of a composition containing Sm-153-EDTMP. […] After approximately 3 months, when signs of lameness began to reappear, the dog was given a second treatment of 15 mCi (0.49 mCi/kg), of a composition containing Sm-153-EDTMP.
A female Irish Wolfhound with a possible osteosarcoma on the left distal radius was injected with a composition containing ^166 Ho-EDTMP (0.97 mCi/kg).

[3] = Sm-153, rats, 2 hours, average of 5 rats
[4] = Yb-175, rats, two hour, average of 5 rats
[5] = Lu-177 (Ex. 14, 15; 5 rats) or Ho-166 (Ex. 16; 3 rats), two hour
[6] = Gd-159, two hour, average of five rats
[7] = Ho-166, Table X, time not stated, average of 3 rats
[8] = Ho-166, two hours, comparative, average of 2 rats (MDP, HEDP, PYP), 1 rat (IDP, HDP)
[9] = Sm-153, two hours, comparative, average of 5 rats (MDP, HEDP), 3 rats (PYP, IDP)

SMILES: O=P(O)(O)CN(CCO)CP(=O)(O)O.[153Sm+3]
- localization of radioactivity in the liver [1]: a significant portion of the radioactivity localized in the liver

SMILES: O=P(O)(O)CN(CCN(CP(=O)(O)O)CP(=O)(O)O)CCN(CP(=O)(O)O)CP(=O)(O)O.[153Sm+3] [Example 4]
- % Dose in Blood [2, 3]: 0.16 % Dose
- % Dose in Liver [2, 3]: 0.27 % Dose
- % Dose in Skeleton [2, 3]: 30 % Dose
- % Dose in Urine [2, 3]: 74 % Dose
- Bone/Blood [2, 3]: 224
- Bone/Muscle [2, 3]: 220

SMILES: O=P(O)(O)CN(CCO)CCN(CP(=O)(O)O)CP(=O)(O)O.[153Sm+3] [Example 6]
- % Dose in Blood [2, 3]: 0.035 % Dose
- % Dose in Liver [2, 3]: 0.45 % Dose
- % Dose in Skeleton [2, 3]: 57 % Dose
- % Dose in Urine [2, 3]: 50 % Dose
- Bone/Blood [2, 3]: 1300
- Bone/Muscle [2, 3]: 1300

SMILES: O=P(O)(O)CN(CCN(CCN(CP(=O)(O)O)CP(=O)(O)O)CCN(CP(=O)(O)O)CP(=O)(O)O)CP(=O)(O)O.[153Sm+3] [Example 8]
- % Dose in Blood [2, 3]: 0.25 % Dose
- % Dose in Liver [2, 3]: 0.18 % Dose
- % Dose in Skeleton [2, 3]: 28 % Dose
- % Dose in Urine [2, 3]: 65 % Dose
- Bone/Blood [2, 3]: 80
- Bone/Muscle [2, 3]: 410

SMILES: O=P(O)(O)CN(CCN(CP(=O)(O)O)CP(=O)(O)O)CP(=O)(O)O.[175Yb+3] [Example 9]
- % Dose in Blood [2, 4]: 0.074 % Dose
- % Dose in Liver [2, 4]: 0.138 % Dose
- % Dose in Skeleton [2, 4]: 50 % Dose
- Bone/Blood [2, 4]: 562
- Bone/Muscle [2, 4]: 619

SMILES: O=P(O)(O)CN(CCN(CP(=O)(O)O)CP(=O)(O)O)CCN(CP(=O)(O)O)CP(=O)(O)O.[175Yb+3] [Example 10]
- % Dose in Blood [2, 4]: 0.116 % Dose
- % Dose in Liver [2, 4]: 0.112 % Dose
- % Dose in Skeleton [2, 4]: 25 % Dose
- Bone/Blood [2, 4]: 179
- Bone/Muscle [2, 4]: 366

SMILES: O=P(O)(O)CN(CCO)CCN(CP(=O)(O)O)CP(=O)(O)O.[175Yb+3] [Example 11]
- % Dose in Blood [2, 4]: 0.231 % Dose
- % Dose in Liver [2, 4]: 0.214 % Dose
- % Dose in Skeleton [2, 4]: 56 % Dose
- Bone/Blood [2, 4]: 190
- Bone/Muscle [2, 4]: 572

SMILES: O=P(O)(O)CN(CP(=O)(O)O)CP(=O)(O)O.[175Yb+3] [Example 13]
- % Dose in Blood [2, 4]: 0.204 % Dose
- % Dose in Liver [2, 4]: 0.236 % Dose
- % Dose in Skeleton [2, 4]: 63 % Dose
- Bone/Blood [2, 4]: 256
- Bone/Muscle [2, 4]: 876

SMILES: O=P(O)(O)CN(CCN(CP(=O)(O)O)CP(=O)(O)O)CP(=O)(O)O.[177Lu+3] [Example 14]
- % Dose in Blood [2, 5]: 0.10 % Dose
- % Dose in Kidneys [2, 5]: 0.28 % Dose
- % Dose in Liver [2, 5]: 0.48 % Dose
- % Dose in Muscle [2, 5]: 0.44 % Dose
- % Dose in Skeleton [2, 5]: 51 % Dose
- Bone/Blood [2, 5]: 500
- Bone/Muscle [2, 5]: 1380

SMILES: O=P(O)(O)CN(CCO)CCN(CP(=O)(O)O)CP(=O)(O)O.[177Lu+3] [Example 15]
- % Dose in Blood [2, 5]: 0.17 % Dose
- % Dose in Kidneys [2, 5]: 0.30 % Dose
- % Dose in Liver [2, 5]: 1.9 % Dose
- % Dose in Muscle [2, 5]: 0.56 % Dose
- % Dose in Skeleton [2, 5]: 58 % Dose
- Bone/Blood [2, 5]: 370
- Bone/Muscle [2, 5]: 570

SMILES: O=P(O)(O)CN(CCN(CP(=O)(O)O)CP(=O)(O)O)CP(=O)(O)O.[166Ho+3] [Example 16]
- additional survival (tumor): 9 months
- survival compared with usual expected life (tumor): greater than the usual expected life of a dog with osteosarcoma
- % Dose in Blood [2, 5]: 0.03 % Dose
- % Dose in Kidneys [2, 5]: 0.26 % Dose
- % Dose in Liver [2, 5]: 0.05 % Dose
- % Dose in Muscle [2, 5]: 0.10 % Dose
- % Dose in Skeleton [2, 5]: 48 % Dose
- Bone/Blood [2, 5]: 1114
- Bone/Muscle [2, 5]: 2292

SMILES: O=P(O)(O)CN(CCN(CP(=O)(O)O)CP(=O)(O)O)CP(=O)(O)O.[159Gd+3] [Example 19]
- % Dose in Blood [2, 6]: 0.15 % Dose
- % Dose in Kidneys [2, 6]: 0.33 % Dose
- % Dose in Liver [2, 6]: 0.25 % Dose
- % Dose in Muscle [2, 6]: 0.56 % Dose
- % Dose in Skeleton [2, 6]: 57 % Dose
- Bone/Blood [2, 6]: 305
- Bone/Muscle [2, 6]: 577

SMILES: O=P(O)(O)CN(CCO)CCN(CP(=O)(O)O)CP(=O)(O)O.[159Gd+3] [Example 20]
- % Dose in Blood [2, 6]: 0.14 % Dose
- % Dose in Kidneys [2, 6]: 0.58 % Dose
- % Dose in Liver [2, 6]: 0.57 % Dose
- % Dose in Muscle [2, 6]: 0.76 % Dose
- % Dose in Skeleton [2, 6]: 60 % Dose
- Bone/Blood [2, 6]: 335
- Bone/Muscle [2, 6]: 548

SMILES: CN(CCN(CP(=O)(O)O)CP(=O)(O)O)CP(=O)(O)O.[166Ho+3] [Example 29]
- % Dose in Blood [2, 7]: 0.12 % Dose
- % Dose in Kidney [2, 7]: 0.30 % Dose
- % Dose in Liver [2, 7]: 0.14 % Dose
- % Dose in Muscle [2, 7]: 0.34 % Dose
- % Dose in Skeleton [2, 7]: 68 % Dose
- % Dose in Spleen [2, 7]: 0.01 % Dose
- Bone/Blood [2, 7]: 470
- Bone/Muscle [2, 7]: 1133

SMILES: CC(C)N(CCN(CP(=O)(O)O)CP(=O)(O)O)CP(=O)(O)O.[166Ho+3] [Example 31]
- % Dose in Blood [2, 7]: 0.22 % Dose
- % Dose in Kidney [2, 7]: 0.44 % Dose
- % Dose in Liver [2, 7]: 0.28 % Dose
- % Dose in Muscle [2, 7]: 0.68 % Dose
- % Dose in Skeleton [2, 7]: 65 % Dose
- % Dose in Spleen [2, 7]: 0.01 % Dose
- Bone/Blood [2, 7]: 245
- Bone/Muscle [2, 7]: 520

SMILES: O=P(O)(O)CN(CCN(CP(=O)(O)O)CP(=O)(O)O)Cc1ccccc1.[166Ho+3] [Example 33]
- % Dose in Blood [2, 7]: 0.09 % Dose
- % Dose in Kidney [2, 7]: 0.34 % Dose
- % Dose in Liver [2, 7]: 0.13 % Dose
- % Dose in Muscle [2, 7]: 0.31 % Dose
- % Dose in Skeleton [2, 7]: 65 % Dose
- % Dose in Spleen [2, 7]: 0.01 % Dose
- Bone/Blood [2, 7]: 542
- Bone/Muscle [2, 7]: 1093

SMILES: O=P(O)(O)C(O)P(=O)(O)O.[166Ho+3] [H0-166 HDP, reference compound]
- % Dose In Blood [2, 8]: 0.04 % Dose
- % Dose In Bone [2, 8]: 0.2 % Dose
- % Dose In Liver [2, 8]: 2 % Dose
- Bone/Blood ([2]; Ho-166, two hours, comparative): 4
- Bone/Muscle ([2]; Ho-166, two hours, comparative): 4

SMILES: CC(O)(P(=O)(O)O)P(=O)(O)O.[166Ho+3] [Ho-166 HEDP, reference compound]
- % Dose In Blood [2, 8]: 10.1 % Dose
- % Dose In Bone [2, 8]: 25 % Dose
- % Dose In Liver [2, 8]: 1.8 % Dose
- Bone/Blood ([2]; Ho-166, two hours, comparative): 2
- Bone/Muscle ([2]; Ho-166, two hours, comparative): 17

SMILES: O=P(O)(O)NP(=O)(O)O.[166Ho+3] [Ho-166 IDP, reference compound]
- % Dose In Blood [2, 8]: 0.28 % Dose
- % Dose In Bone [2, 8]: 2 % Dose
- % Dose In Liver [2, 8]: 65 % Dose
- Bone/Blood ([2]; Ho-166, two hours, comparative): 6
- Bone/Muscle ([2]; Ho-166, two hours, comparative): 17

SMILES: O=P(O)(O)CP(=O)(O)O.[166Ho+3] [Ho-166 MDP, reference compound]
- % Dose In Blood [2, 8]: 1.5 % Dose
- % Dose In Bone [2, 8]: 1 % Dose
- % Dose In Liver [2, 8]: 64 % Dose
- Bone/Blood ([2]; Ho-166, two hours, comparative): 0.5
- Bone/Muscle ([2]; Ho-166, two hours, comparative): 6

SMILES: O=P(O)(O)OP(=O)(O)O.[166Ho+3] [Ho-166 PYP, reference compound]
- % Dose In Blood [2, 8]: 0.63 % Dose
- % Dose In Bone [2, 8]: 3 % Dose
- % Dose In Liver [2, 8]: 67 % Dose
- Bone/Blood ([2]; Ho-166, two hours, comparative): 4
- Bone/Muscle ([2]; Ho-166, two hours, comparative): 13

SMILES: CC(O)(P(=O)(O)O)P(=O)(O)O.[153Sm+3] [Sm-153 HEDP, reference compound]
- % Dose In Blood [2, 9]: 13 % Dose
- % Dose In Bone [2, 9]: 21 % Dose
- % Dose In Liver [2, 9]: 3.5 % Dose
- Bone/Blood ([2]; Sm-153, two hours, comparative): 1
- Bone/Muscle ([2]; Sm-153, two hours, comparative): 11

SMILES: O=P(O)(O)NP(=O)(O)O.[153Sm+3] [Sm-153 IDP, reference compound]
- % Dose In Blood [2, 9]: 0.04 % Dose
- % Dose In Bone [2, 9]: 0.6 % Dose
- % Dose In Liver [2, 9]: 36 % Dose
- Bone/Blood ([2]; Sm-153, two hours, comparative): 11
- Bone/Muscle ([2]; Sm-153, two hours, comparative): 8

SMILES: O=P(O)(O)CP(=O)(O)O.[153Sm+3] [Sm-153 MDP, reference compound]
- % Dose In Blood [2, 9]: 0.23 % Dose
- % Dose In Bone [2, 9]: 2 % Dose
- % Dose In Liver [2, 9]: 85 % Dose
- Bone/Blood ([2]; Sm-153, two hours, comparative): 9
- Bone/Muscle ([2]; Sm-153, two hours, comparative): 7

SMILES: O=P(O)(O)OP(=O)(O)O.[153Sm+3] [Sm-153 PYP, reference compound]
- % Dose In Blood [2, 9]: 0.23 % Dose
- % Dose In Bone [2, 9]: 2 % Dose
- % Dose In Liver [2, 9]: 73 % Dose
- Bone/Blood ([2]; Sm-153, two hours, comparative): 7
- Bone/Muscle ([2]; Sm-153, two hours, comparative): 15
